Values joined by “and” are separate entries in the source; they are usually repeats but may differ in a detail not shown here. Identical values can stand only once.
Experiment: Glucose, insulin, and pyruvate tolerance tests
Assay type: in vivo, mouse
Set-up: AUC of IGTT, Total Area / AUC analysis of ITT, Total Area / AUC of ITT, group mean / AUC of PTT, group mean / IGTT, Mean Diff. APC - VEH / IGTT, group mean (Mean 1, APC): unit not given beside the values
Protocol: After overnight fasting, mice were i.p. injected or treated orally with D-glucose (1–2 g/kg) for glucose-tolerance tests (IGTT or OGTT) or injecting with sodium pyruvate (1–2 g/kg) for pyruvate tolerance tests (PTT). Insulin-tolerance tests (ITT) were performed by i.p. injection of insulin (1 U/kg) 2-h after food removal. […]

[1] = db/db mice, ip APC, ITT 0-120 min
[2] = db/db mice, ip APC, 15 min, n=6
[3] = db/db mice, ip APC, 30 min, n=6
[4] = db/db mice, ip APC, 60 min, n=6
[5] = db/db mice, ip APC, 120 min, n=6
[6] = db/db mice, ip APC, PTT 0-120 min

Question: Which results are given for `CC(C)=CCc1cc(C=CC(=O)O)cc(CC=C(C)C)c1O` [APC, 3,5-diprenyl-4-hydroxycinnamic acid]?
Answer: IGTT, group mean (Mean 1, APC) (db/db mice, 15 min, n=8): 441.9; IGTT, Mean Diff. APC - VEH (db/db mice, 30 min): -145.1; IGTT, group mean (Mean 1, APC) (db/db mice, 30 min, n=8): 281; IGTT, Mean Diff. APC - VEH (db/db mice, 60 min): -166.5; IGTT, group mean (Mean 1, APC) (db/db mice, 60 min, n=8): 217.8; IGTT, Mean Diff. APC - VEH (db/db mice, 120 min): -105; IGTT, group mean (Mean 1, APC) (db/db mice, 120 min, n=8): 171; AUC of ITT (Total Area), individual mice (db/db mice, ip APC): 528.6 and 524.4 and 533.7 and 561.3 and 514.8 and 472.5; AUC of ITT in db, difference between means (APC - VEH) ± SEM (db/db mice, ip APC): -215.2 ± 51.46; AUC of PTT, individual mice (db/db mice, ip APC): 534.6 and 662.4 and 481.5 and 659.7 and 691.6 and 494.5; IGTT blood glucose (db/db mice, ip APC, 0 mins, individual mouse, n=8): 153 mg/dL and 144 mg/dL and 142.2 mg/dL and 138.6 mg/dL and 176.4 mg/dL and 127.8 mg/dL and 140.4 mg/dL and 113.4 mg/dL; IGTT blood glucose (db/db mice, ip APC, 15 mins, individual mouse, n=8): 477 mg/dL and 363.6 mg/dL and 334.8 mg/dL and 511.2 mg/dL and 419.4 mg/dL and 423 mg/dL and 480.6 mg/dL and 525.6 mg/dL; IGTT blood glucose (db/db mice, ip APC, 30 mins, individual mouse, n=8): 262.8 mg/dL and 450 mg/dL and 293.4 mg/dL and 275.4 mg/dL and 228.4 mg/dL and 228.6 mg/dL and 124.2 mg/dL and 385.2 mg/dL; IGTT blood glucose (db/db mice, ip APC, 60 mins, individual mouse, n=8): 205.2 mg/dL and 233.8 mg/dL and 221.4 mg/dL and 237.6 mg/dL and 329.4 mg/dL and 163.8 mg/dL and 135 mg/dL and 216 mg/dL; IGTT blood glucose (db/db mice, ip APC, 120 mins, individual mouse, n=8): 176.4 mg/dL and 270 mg/dL and 153 mg/dL and 138.6 mg/dL and 250.2 mg/dL and 133.2 mg/dL and 99 mg/dL and 147.6 mg/dL; ITT blood glucose, difference between column means (CT vs APC) [1]: 51.32; ITT blood glucose, mean over all time points (Mean of APC) [1]: 134.7; ITT blood glucose, Mean Diff. APC - CT (db/db mice, ip APC, 0 min): -52.47; ITT blood glucose, individual mice (db/db mice, ip APC, 0 min): 178.2 mg/dL and 172.8 mg/dL and 156.6 mg/dL and 194.4 mg/dL and 190.4 mg/dL and 192.6 mg/dL; ITT blood glucose, group mean (Mean 1, APC) (db/db mice, ip APC, 0 min, n=6): 180.8; ITT blood glucose, Mean Diff. APC - CT (db/db mice, ip APC, 15 min): -63.57; ITT blood glucose, individual mice (db/db mice, ip APC, 15 min): 137.6 mg/dL and 129.6 mg/dL and 153 mg/dL and 133 mg/dL and 138.3 mg/dL and 126 mg/dL; ITT blood glucose, group mean (Mean 1, APC) [2]: 136.3; ITT blood glucose, Mean Diff. APC - CT (db/db mice, ip APC, 30 min): -56.08; ITT blood glucose, individual mice (db/db mice, ip APC, 30 min): 101.2 mg/dL and 129.6 mg/dL and 115.2 mg/dL and 124.2 mg/dL and 128.4 mg/dL and 111.6 mg/dL; ITT blood glucose, group mean (Mean 1, APC) [3]: 118.4; ITT blood glucose, Mean Diff. APC - CT (db/db mice, ip APC, 60 min): -54.15; ITT blood glucose, individual mice (db/db mice, ip APC, 60 min): 120.6 mg/dL and 115 mg/dL and 129.6 mg/dL and 138.6 mg/dL and 105.2 mg/dL and 91.8 mg/dL; ITT blood glucose, group mean (Mean 1, APC) [4]: 116.8; ITT blood glucose, Mean Diff. APC - CT (db/db mice, ip APC, 120 min): -30.35; ITT blood glucose, individual mice (db/db mice, ip APC, 120 min): 160.2 mg/dL and 127.6 mg/dL and 115.2 mg/dL and 136.6 mg/dL and 95.3 mg/dL and 93.6 mg/dL; ITT blood glucose, group mean (Mean 1, APC) [5]: 121.4; PTT blood glucose, difference between column means (VEH vs APC) [6]: 95.48; PTT blood glucose, mean over all time points (Mean of APC) [6]: 143.6; PTT blood glucose, Mean Diff. APC - VEH (db/db mice, ip APC, 0 min): -59.27; PTT blood glucose, individual mice (db/db mice, ip APC, 0 min): 156.6 mg/dL and 129.6 mg/dL and 131.4 mg/dL and 153 mg/dL and 147.6 mg/dL and 135.8 mg/dL; PTT blood glucose, group mean (Mean 1, APC) (db/db mice, ip APC, 0 min, n=6): 142.3; PTT blood glucose, Mean Diff. APC - VEH (db/db mice, ip APC, 15 min): -65.02; PTT blood glucose, individual mice (db/db mice, ip APC, 15 min): 142.2 mg/dL and 181.8 mg/dL and 156.6 mg/dL and 169.2 mg/dL and 180.5 mg/dL and 149.4 mg/dL; PTT blood glucose, group mean (Mean 1, APC) [2]: 163.3; PTT blood glucose, Mean Diff. APC - VEH (db/db mice, ip APC, 30 min): -106.5; PTT blood glucose, individual mice (db/db mice, ip APC, 30 min): 135 mg/dL and 194.4 mg/dL and 126 mg/dL and 172.8 mg/dL and 163.7 mg/dL and 142.2 mg/dL; PTT blood glucose, group mean (Mean 1, APC) [3]: 155.7; PTT blood glucose, Mean Diff. APC - VEH (db/db mice, ip APC, 60 min): -119.1; PTT blood glucose, individual mice (db/db mice, ip APC, 60 min): 124.2 mg/dL and 140.4 mg/dL and 99 mg/dL and 169.2 mg/dL and 201.6 mg/dL and 93.6 mg/dL; PTT blood glucose, group mean (Mean 1, APC) [4]: 138; PTT blood glucose, Mean Diff. APC - VEH (db/db mice, ip APC, 120 min): -127.5; PTT blood glucose, individual mice (db/db mice, ip APC, 120 min): 109.8 mg/dl and 162 mg/dl and 68.4 mg/dl and 144 mg/dl (2×) and 82.8 mg/dl; PTT blood glucose, group mean (Mean 1, APC) [5]: 118.5; IGTT AUC, Total Area (db/db mice, ip APC, individual mouse, n=8): 1110 and 1254 and 997.2 and 1163 and 1191 and 945.9 and 859.5 and 1257; AUC of ITT in db, group mean (db/db mice, ip APC, n=6): 522.6; AUC in PTT, mean of differences (APC - VEH) (db/db mice, ip APC, paired t test, 6 pairs): -383.9; AUC of IGTT in db/db, group mean (db/db mice, n=8): 1097; AUC of ITT, group mean (mean of APC group, n=7): 367.6
